{"source": "ChEMBL document CHEMBL1148945", "about": "“Isolation of cytochrome P450 inhibitors from strawberry fruit, Fragaria ananassa” (J Nat Prod, 2004)", "molecular_target": "Cytochrome P450 3A4 (Homo sapiens, UniProt P08684)", "sequence (P08684 whole entry)": "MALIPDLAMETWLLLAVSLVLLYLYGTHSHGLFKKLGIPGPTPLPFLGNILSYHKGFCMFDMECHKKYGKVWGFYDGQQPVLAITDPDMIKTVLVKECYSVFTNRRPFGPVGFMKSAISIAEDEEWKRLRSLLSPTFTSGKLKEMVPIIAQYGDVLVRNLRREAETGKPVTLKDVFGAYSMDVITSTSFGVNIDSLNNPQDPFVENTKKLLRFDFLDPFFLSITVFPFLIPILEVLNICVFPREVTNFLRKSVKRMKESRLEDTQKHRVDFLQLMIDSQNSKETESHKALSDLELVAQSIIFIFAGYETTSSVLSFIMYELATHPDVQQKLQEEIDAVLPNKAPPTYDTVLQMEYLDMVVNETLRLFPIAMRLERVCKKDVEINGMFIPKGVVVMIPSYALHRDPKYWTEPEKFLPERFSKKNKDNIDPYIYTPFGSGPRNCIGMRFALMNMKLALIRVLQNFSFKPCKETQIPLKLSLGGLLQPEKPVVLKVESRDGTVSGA", "test": "Inhibition of human CYP3A4", "type": "ADME", "data": [{"molecule": "O=C(/C=C\\c1ccc(O)cc1)OC[C@H]1O[C@@H](Oc2c(-c3ccc(O)cc3)oc3cc(O)cc(O)c3c2=O)[C@H](O)[C@@H](O)[C@@H]1O", "values": [{"measurement": "IC50", "result": 700, "unit": "nM"}]}, {"molecule": "O=C(/C=C/c1ccc(O)cc1)OC[C@H]1O[C@@H](Oc2c(-c3ccc(O)cc3)oc3cc(O)cc(O)c3c2=O)[C@H](O)[C@@H](O)[C@@H]1O", "note": "[TILIROSIDE]", "values": [{"measurement": "IC50", "result": 700, "unit": "nM"}]}, {"molecule": "CC(C)CC(=O)c1c(O)cc(O)cc1O[C@@H]1O[C@H](CO)[C@@H](O)[C@H](O)[C@H]1O", "values": [{"measurement": "IC50", "result": 120000, "unit": "nM"}]}]}
